# Results reported in ChEMBL document CHEMBL1149874 (Bioorg Med Chem, 2008).
# Calls of active or inactive are those of the source. No cut-off for these calls is given here. Residues, ends and D or L forms follow the SMILES beside them.
# What was measured:
# [1] = biological target: T1, Mu-type opioid receptor (Homo sapiens, UniProt P35372); assay: Displacement of [3H]DAMGO from mu opioid receptor in human SH-SY5Y cells; format: cell-based
# [2] = biological target: T1, Mu-type opioid receptor; assay: Decrease in internalization of mu opioid receptor in human SH-SY5Y cells; format: cell-based
# [3] = biological target: T1, Mu-type opioid receptor; assay: Increase in internalization of mu opioid receptor in human SH-SY5Y cells; format: cell-based
# [4] = biological target: T1, Mu-type opioid receptor; assay: Agonist activity at mu opioid receptor assessed as inhibition of forskolin-induced cAMP production in human SH-SY5Y cells pretreated for 24 hrs with DMEM medium after 15 mins; format: functional, cell-based
# [5] = biological target: T1, Mu-type opioid receptor; assay: Agonist activity at mu opioid receptor assessed as inhibition of forskolin-induced cAMP production in human SH-SY5Y cells pretreated for 24 hrs with excess ligand after 15 mins; format: functional, cell-based
# T1 sequence (P35372 whole entry): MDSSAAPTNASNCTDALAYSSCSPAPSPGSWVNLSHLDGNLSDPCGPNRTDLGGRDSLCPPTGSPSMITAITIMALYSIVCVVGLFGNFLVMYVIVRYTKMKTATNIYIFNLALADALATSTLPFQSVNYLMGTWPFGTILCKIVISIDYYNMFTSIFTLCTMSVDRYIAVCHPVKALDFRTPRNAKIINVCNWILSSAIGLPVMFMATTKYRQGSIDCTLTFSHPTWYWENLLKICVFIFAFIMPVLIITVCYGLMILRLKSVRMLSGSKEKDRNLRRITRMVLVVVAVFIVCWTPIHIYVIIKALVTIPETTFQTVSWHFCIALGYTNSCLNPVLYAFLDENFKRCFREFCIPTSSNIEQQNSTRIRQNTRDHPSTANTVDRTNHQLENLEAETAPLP
compound,measurement,setting,value
C[C@H](NC(=O)[C@@H](N)Cc1ccc(O)cc1)C(=O)N[C@@H](Cc1c[nH]c2ccccc12)C(=O)N[C@@H](Cc1ccccc1)C(N)=O (H-YAWF-NH2),Ki,[1],3.19 µM
C[C@H](NC(=O)[C@H](C)NC(=O)[C@@H]1CCCN1C(=O)[C@@H](N)Cc1ccc(O)cc1)C(N)=O (H-YPAA-NH2),Activity,[2],Active
same,Ki,[1],0.705 µM
C[C@H](NC(=O)[C@@H]1CCCN1C(=O)[C@@H](N)Cc1ccc(O)cc1)C(=O)N[C@@H](Cc1ccccc1)C(N)=O (H-YPAF-NH2),Activity,[2],Active
same,Ki,[1],0.226 µM
C[C@H](NC(=O)[C@H](Cc1c[nH]c2ccccc12)NC(=O)[C@@H]1CCCN1C(=O)[C@@H](N)Cc1ccc(O)cc1)C(N)=O (H-YPWA-NH2),Activity,[2],Active
same,Ki,[1],0.0727 µM
H-YGGWL-NH2,Activity,[3],22%
same,IC50,[4],0.0275 µM
same,IC50,[5],0.0492 µM
same,Ki,[1],0.0121 µM
H-YGWFL-NH2,Activity,[3],40%
same,IC50,[4],0.126 µM
same,IC50,[5],0.132 µM
same,Ki,[1],0.113 µM
